The series is described as follows: Characterisation of the air-liquid release system (Franz diffusion cell, online UV detection at 225 nm) with dissolved active substance. Type of series: physicochemical. As to the method: Above the membrane 6 an air chamber is formed as the second compartment 12, and the entire diffusion cell 13 (Franz cell) is surrounded by thermal insulation 9 and can be temperature controlled in the desired manner by means of a hotplate 10. The release medium is mixed by means of a magnetic stirrer 14. In order to characterise the system, first of all salbutamol sulphate, as the sample active substance, was added directly in the form of a dilute solution to the release medium (PBS, phosphate buffered saline) and measured at 225 nm in the photometer. […] Salbutamol sulphate applied to the membrane 6 reaches the maximum concentration after about ten minutes. This means that the membrane 6 forms a diffusion barrier for about six minutes. The total system has a reaction time of about ten minutes, i.e. changes in concentration caused by the release of active substance are detected with a ten minute delay. On the timescale of a typical release test over 24 hours this delay can be disregarded.

Consider 1 substance from patent US8783089B2, “Device and method for determining the properties of aerosol formulations” (Boehringer Ingelheim International GmbH, priority 2008, dated 2014).

On to salbutamol sulphate, for which, where the note is “applied to the membrane 6 (regenerated cellulose), release medium PBS, 225 nm”, the “time until maximum concentration is reached” value is on record as “about ten”. In addition, the “incubation time until the active substance concentration reaches a plateau” value (dilute solution added directly to the release medium (PBS), measured at 225 nm) was “about four”.
